Reference: ChEMBL document CHEMBL5614446, “Side Chain Investigation of Imidazopyridazine as a Hinge Binder for Targeting Actionable Mutations of RET Kinase” (ACS Med Chem Lett, 2024)

How the values were obtained:
[1] = biological target: Proto-oncogene tyrosine-protein kinase receptor Ret (Homo sapiens, UniProt P07949, G810R); test: Inhibition of human RET kinase-G810R mutant using RRRRRRRRRRRVYSTDYYRLFNPS as substrate in presence of [gamma33P]-ATP and 10 uM ATP by radiometric HotSpot assay
[2] = biological target: Proto-oncogene tyrosine-protein kinase receptor Ret (Homo sapiens, UniProt P07949, V804M); test: Inhibition of human RET kinase-V804M mutant using RRRRRRRRRRRVYSTDYYRLFNPS as substrate in presence of [gamma33P]-ATP and 10 uM ATP by radiometric HotSpot assay
[3] = Inhibition of human […]-RET kinase-V804M mutant in presence of [gamma33P]-ATP and 10 uM ATP by radiometric HotSpot assay
[4] = test system: Proto-oncogene tyrosine-protein kinase receptor Ret (Homo sapiens), P07949 [G810R]; test: Inhibition of human RET kinase-G810R mutant assessed as residual activity at 0.1 uM using RRRRRRRRRRRVYSTDYYRLFNPS as substrate in presence of [gamma33P]-ATP and 10 uM ATP by radiometric HotSpot assay
[5] = test system: Proto-oncogene tyrosine-protein kinase receptor Ret (Homo sapiens), P07949 [V804M]; test: Inhibition of human RET kinase-V804M mutant at 0.1 uM using RRRRRRRRRRRVYSTDYYRLFNPS as substrate in presence of [gamma33P]-ATP and 10 uM ATP by radiometric HotSpot assay relative to control
[6] = test system: BaF3; test: Cytotoxicity against mouse BaF3 cells expressing […]-RET kinase fusion protein assessed as inhibition of cell proliferation incubated for 72 hrs by CCK8 assay; format: functional, cell-based; conditions: BaF3, 72 h
[7] = test system: BaF3; test: Cytotoxicity against mouse BaF3 cells expressing […]-RET kinase-V804L mutant fusion protein assessed as inhibition of cell proliferation incubated for 72 hrs by CCK8 assay; format: functional, cell-based; conditions: BaF3, 72 h
[8] = test system: BaF3; test: Cytotoxicity against mouse BaF3 cells expressing […]-RET kinase-G810R mutant fusion protein assessed as inhibition of cell proliferation incubated for 72 hrs by CCK8 assay; format: functional, cell-based; conditions: BaF3, 72 h
[9] = test system: BaF3; test: Cytotoxicity against mouse BaF3 cells expressing […]-RET kinase-G810S mutant fusion protein assessed as inhibition of cell proliferation incubated for 72 hrs by CCK8 assay; format: functional, cell-based; conditions: BaF3, 72 h
[10] = test system: BaF3; test: Cytotoxicity against mouse BaF3 cells expressing […]-RET kinase-G810C mutant fusion protein assessed as inhibition of cell proliferation incubated for 72 hrs by CCK8 assay; format: functional, cell-based; conditions: BaF3, 72 h
[11] = test system: BaF3; test: Cytotoxicity against mouse BaF3 cells expressing […]-RET kinase-G810A mutant fusion protein assessed as inhibition of cell proliferation incubated for 72 hrs by CCK8 assay; format: functional, cell-based; conditions: BaF3, 72 h
[12] = test system: BaF3; test: Cytotoxicity against mouse BaF3 cells expressing […]-RET kinase-V804M mutant fusion protein assessed as inhibition of cell proliferation incubated for 72 hrs by CCK8 assay; format: functional, cell-based; conditions: BaF3, 72 h
[13] = biological target: Proto-oncogene tyrosine-protein kinase receptor Ret (Homo sapiens, UniProt P07949); test: Inhibition of human wild type RET kinase using RRRRRRRRRRRVYSTDYYRLFNPS as substrate in presence of [gamma33P]-ATP and 10 uM ATP by radiometric HotSpot assay
[14] = biological target: Kinesin-1 heavy chain/ Tyrosine-protein kinase receptor RET (Homo sapiens, UniProt P07949); test: Inhibition of human […]-RET kinase in presence of [gamma33P]-ATP and 10 uM ATP by radiometric HotSpot assay; format: protein assay
Chain of Kinesin-1 heavy chain/ Tyrosine-protein kinase receptor RET (P07949 whole entry): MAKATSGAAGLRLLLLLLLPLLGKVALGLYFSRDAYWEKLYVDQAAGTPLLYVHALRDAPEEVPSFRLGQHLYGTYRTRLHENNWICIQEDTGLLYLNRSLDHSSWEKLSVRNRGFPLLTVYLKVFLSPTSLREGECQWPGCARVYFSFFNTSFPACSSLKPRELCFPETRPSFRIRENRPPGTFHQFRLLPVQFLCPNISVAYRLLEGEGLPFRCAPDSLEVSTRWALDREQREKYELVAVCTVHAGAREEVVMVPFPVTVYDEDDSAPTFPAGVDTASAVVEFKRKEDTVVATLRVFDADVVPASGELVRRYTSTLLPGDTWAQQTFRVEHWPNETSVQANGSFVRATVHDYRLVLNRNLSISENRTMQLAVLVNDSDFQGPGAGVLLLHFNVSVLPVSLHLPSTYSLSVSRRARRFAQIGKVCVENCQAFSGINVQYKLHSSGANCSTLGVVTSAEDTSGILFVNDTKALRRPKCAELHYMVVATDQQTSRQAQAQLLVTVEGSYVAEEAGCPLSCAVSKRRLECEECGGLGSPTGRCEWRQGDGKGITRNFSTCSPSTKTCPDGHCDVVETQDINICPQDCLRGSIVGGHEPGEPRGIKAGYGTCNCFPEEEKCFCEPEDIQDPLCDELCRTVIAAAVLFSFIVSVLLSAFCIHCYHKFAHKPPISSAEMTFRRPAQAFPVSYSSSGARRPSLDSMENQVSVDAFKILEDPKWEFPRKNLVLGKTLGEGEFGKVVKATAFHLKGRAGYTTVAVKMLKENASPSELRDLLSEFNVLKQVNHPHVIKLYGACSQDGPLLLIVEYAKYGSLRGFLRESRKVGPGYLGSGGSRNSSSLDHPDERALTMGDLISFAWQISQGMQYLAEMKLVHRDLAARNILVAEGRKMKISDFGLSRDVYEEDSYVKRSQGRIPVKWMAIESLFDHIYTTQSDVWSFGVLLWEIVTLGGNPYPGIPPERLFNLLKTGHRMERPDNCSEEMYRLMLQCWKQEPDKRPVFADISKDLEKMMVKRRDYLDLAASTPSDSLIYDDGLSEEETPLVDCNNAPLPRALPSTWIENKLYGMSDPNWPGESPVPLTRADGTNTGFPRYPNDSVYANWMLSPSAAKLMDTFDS
Chain of Kinesin-1 heavy chain/ Tyrosine-protein kinase receptor RET (P33176 whole entry, further chain): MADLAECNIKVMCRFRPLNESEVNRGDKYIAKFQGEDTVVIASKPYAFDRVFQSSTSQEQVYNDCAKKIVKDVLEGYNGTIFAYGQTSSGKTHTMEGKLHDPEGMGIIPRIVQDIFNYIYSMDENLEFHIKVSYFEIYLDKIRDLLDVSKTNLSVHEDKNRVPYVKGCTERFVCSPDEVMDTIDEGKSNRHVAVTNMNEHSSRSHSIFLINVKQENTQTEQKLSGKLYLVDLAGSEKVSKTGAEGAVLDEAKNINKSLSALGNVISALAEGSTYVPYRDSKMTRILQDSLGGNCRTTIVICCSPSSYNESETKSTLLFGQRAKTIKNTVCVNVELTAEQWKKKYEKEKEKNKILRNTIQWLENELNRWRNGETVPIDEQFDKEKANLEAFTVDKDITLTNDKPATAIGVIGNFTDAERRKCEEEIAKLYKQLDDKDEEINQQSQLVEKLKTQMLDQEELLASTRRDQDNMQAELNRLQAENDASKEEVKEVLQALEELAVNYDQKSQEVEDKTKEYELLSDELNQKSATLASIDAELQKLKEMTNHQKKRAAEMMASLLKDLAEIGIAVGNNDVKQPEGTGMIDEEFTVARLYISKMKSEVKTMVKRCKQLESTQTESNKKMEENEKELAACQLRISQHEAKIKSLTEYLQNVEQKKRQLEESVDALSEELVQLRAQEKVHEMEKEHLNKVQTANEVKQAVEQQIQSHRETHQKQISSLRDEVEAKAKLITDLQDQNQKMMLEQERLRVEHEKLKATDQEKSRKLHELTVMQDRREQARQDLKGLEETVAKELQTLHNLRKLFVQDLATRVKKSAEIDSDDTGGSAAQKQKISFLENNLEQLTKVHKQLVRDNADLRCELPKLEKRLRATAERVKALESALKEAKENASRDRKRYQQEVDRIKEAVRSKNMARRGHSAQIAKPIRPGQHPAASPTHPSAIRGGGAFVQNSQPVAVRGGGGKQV

Chain of Proto-oncogene tyrosine-protein kinase receptor Ret (Homo sapiens, UniProt P07949) (P07949 whole entry): as the sequence (P07949 whole entry) above
Chain of Proto-oncogene tyrosine-protein kinase receptor Ret (Homo sapiens, UniProt P07949, V804M) (P07949 29-1114 V804M limits assumed): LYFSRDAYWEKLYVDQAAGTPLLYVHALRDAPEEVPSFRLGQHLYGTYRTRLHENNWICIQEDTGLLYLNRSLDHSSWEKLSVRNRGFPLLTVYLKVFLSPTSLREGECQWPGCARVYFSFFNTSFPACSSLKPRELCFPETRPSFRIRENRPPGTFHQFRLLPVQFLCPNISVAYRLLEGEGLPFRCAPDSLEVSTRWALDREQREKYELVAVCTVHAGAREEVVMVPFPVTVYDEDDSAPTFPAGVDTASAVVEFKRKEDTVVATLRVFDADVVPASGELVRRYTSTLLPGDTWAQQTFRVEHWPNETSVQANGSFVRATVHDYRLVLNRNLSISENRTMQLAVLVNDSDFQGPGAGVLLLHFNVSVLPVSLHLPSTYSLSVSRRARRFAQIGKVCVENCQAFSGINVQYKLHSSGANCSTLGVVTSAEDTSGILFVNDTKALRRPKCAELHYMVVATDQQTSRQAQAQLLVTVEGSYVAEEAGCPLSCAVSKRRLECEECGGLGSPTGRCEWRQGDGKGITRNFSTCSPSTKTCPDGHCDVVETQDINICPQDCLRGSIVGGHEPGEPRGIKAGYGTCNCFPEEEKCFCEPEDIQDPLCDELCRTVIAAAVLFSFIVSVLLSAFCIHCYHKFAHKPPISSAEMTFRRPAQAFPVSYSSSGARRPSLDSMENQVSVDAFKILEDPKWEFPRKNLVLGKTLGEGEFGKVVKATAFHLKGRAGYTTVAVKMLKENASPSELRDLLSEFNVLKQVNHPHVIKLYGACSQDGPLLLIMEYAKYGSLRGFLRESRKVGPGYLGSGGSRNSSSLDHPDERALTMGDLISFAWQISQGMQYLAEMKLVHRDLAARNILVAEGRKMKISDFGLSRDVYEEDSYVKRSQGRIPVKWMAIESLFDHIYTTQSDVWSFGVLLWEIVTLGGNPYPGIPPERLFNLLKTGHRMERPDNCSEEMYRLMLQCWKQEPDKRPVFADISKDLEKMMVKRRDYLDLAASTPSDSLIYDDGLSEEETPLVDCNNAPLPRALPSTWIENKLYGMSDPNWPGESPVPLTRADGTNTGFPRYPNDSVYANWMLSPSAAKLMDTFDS
Chain of Proto-oncogene tyrosine-protein kinase receptor Ret (Homo sapiens, UniProt P07949, G810R) (P07949 29-1114 G810R limits assumed): as the sequence (P07949 29-1114 V804M limits assumed) above, with M776V, G782R counted along it
Chain of Proto-oncogene tyrosine-protein kinase receptor Ret (Homo sapiens), P07949 [G810R] (P07949 whole entry G810R): as the sequence (P07949 whole entry) above, with G810R counted along it
Chain of Proto-oncogene tyrosine-protein kinase receptor Ret (Homo sapiens), P07949 [V804M] (P07949 whole entry V804M, the tested form may be a part): as the sequence (P07949 whole entry) above, with V804M counted along it

| SMILES | IC50 [1] | IC50 [2] | IC50 [3] | Activity [4] | inhibition [5] | IC50 [13] | IC50 [14] | IC50 [6] | IC50 [7] | IC50 [8] | IC50 [9] | IC50 [10] | IC50 [11] | IC50 [12] |
| --- | --- | --- | --- | --- | --- | --- | --- | --- | --- | --- | --- | --- | --- | --- |
| COc1ccc(Nc2ccc3ncc(C#Cc4cc(C(=O)Nc5cc(CN6CCN(C)CC6)cc(C(F)(F)F)c5)ccc4C)n3n2)cc1 | 89.8 nM | 0.9 nM | 137 nM | 46.6% |  |  |  |  |  |  |  |  |  |  |
| CCOC(=O)c1nc2n(c1C#Cc1cc(C(=O)Nc3cc(-n4cnc(C)c4)cc(C(F)(F)F)c3)ccc1C)NC(NC1CC1)C=C2 (stereo not drawn) |  |  |  |  |  |  |  | 3000 nM | 3300 nM | 3800 nM | 3000 nM | 2900 nM | 3800 nM |  |
| COc1ccc(CN2C3CC2CN(c2ccc(-c4cc(OCC(C)(C)O)cn5ncc(C#N)c45)cn2)C3)cn1 [SELPERCATINIB] |  |  |  |  |  |  |  | 10 nM | 20 nM | 2100 nM | 400 nM | 5800 nM | 260 nM | 100 nM |
| Cc1ccc(C(=O)Nc2cc(CN3CCN(C)CC3)cc(C(F)(F)F)c2)cc1C#Cc1cnc2ccc(N3CCOCC3)nn12 | 41.3 nM | 0.1 nM | 47.8 nM | 26.4% |  |  |  |  |  |  |  |  |  |  |
| CCOC(=O)c1nc2ccc(NCCN3CCCCC3)nn2c1C#Cc1cc(C(=O)Nc2cc(-n3cnc(C)c3)cc(C(C)(C)C#N)c2)c(NCCN2CCCCC2)cc1C |  |  |  |  |  |  |  | 900 nM | 1600 nM | 1200 nM | 1600 nM | 1700 nM | 1200 nM |  |
| CCOC(=O)c1nc2ccc(Nc3cc(C)[nH]n3)nn2c1C#Cc1cc(C(=O)Nc2cc(-n3cnc(C)c3)cc(C(F)(F)F)c2)ccc1C | > 2000 nM | 102 nM | > 2000 nM |  |  | 921 nM | > 2000 nM |  |  |  |  |  |  |  |
| Cc1ccc(C(=O)Nc2ccc(CN3CCN(C)CC3)c(C(F)(F)F)c2)cc1C#Cc1cnc2ccc(OCCN3CCOCC3)nn12 | 11 nM | < 0.5 nM | 84.5 nM |  |  | 478 nM | 129 nM |  |  |  |  |  |  |  |

Continued, in another order:

| IC50 [1] | IC50 [2] | IC50 [3] | Activity [4] | inhibition [5] | IC50 [13] | IC50 [14] | SMILES | IC50 [6] | IC50 [7] | IC50 [8] | IC50 [9] | IC50 [10] | IC50 [11] | IC50 [12] |
| --- | --- | --- | --- | --- | --- | --- | --- | --- | --- | --- | --- | --- | --- | --- |
| 19.8 nM | < 0.5 nM | 281 nM |  | 100% |  |  | Cc1ccc(C(=O)Nc2cc(CN3CCN(C)CC3)cc(C(F)(F)F)c2)cc1C#Cc1cnc2ccc(Cl)nn12 |  |  |  |  |  |  |  |
| 25.3 nM | < 0.5 nM | 19.4 nM |  |  | 3.6 nM | 1.2 nM | Cc1ccc(C(=O)Nc2ccc(CN3CCN(C)CC3)c(C(F)(F)F)c2)cc1C#Cc1cnc2ccc(OCCNC(C)C)nn12 |  |  |  |  |  |  |  |
| 1300 nM | 7.4 nM | 622 nM |  |  | 345 nM | 43.7 nM | Cc1cn(-c2cc(NC(=O)c3cc(C#Cc4cnc5ccc(OCCN6CCOCC6)nn45)c(C)cc3F)cc(C(C)(C)C#N)c2)cn1 | 100 nM | 1800 nM | 400 nM | 100 nM | 600 nM | 50 nM | 1600 nM |
